Key:
CYP1A2 = CYP1A2 (Homo sapiens, UniProt P05177); assay: in vitro
Procedure: (§1) The CYP reaction was initiated by adding a CYP probe substrate and incubating at 37° C. for 10-20 minutes, depending on the individual CYP isoform. The reaction was terminated with the addition of 400 μL ice-cold acetonitrile (ACN). […] Positive controls were performed in parallel using a known inhibitor of the individual CYP isoform. […] The samples were then transferred to 96-well plates and analyzed by LC-MS/MS (Appendix 1).

CYP2B6 = target: T1, CYP2B6 (Homo sapiens, UniProt P20813); assay: in vitro
T1 sequence (P20813 1-491): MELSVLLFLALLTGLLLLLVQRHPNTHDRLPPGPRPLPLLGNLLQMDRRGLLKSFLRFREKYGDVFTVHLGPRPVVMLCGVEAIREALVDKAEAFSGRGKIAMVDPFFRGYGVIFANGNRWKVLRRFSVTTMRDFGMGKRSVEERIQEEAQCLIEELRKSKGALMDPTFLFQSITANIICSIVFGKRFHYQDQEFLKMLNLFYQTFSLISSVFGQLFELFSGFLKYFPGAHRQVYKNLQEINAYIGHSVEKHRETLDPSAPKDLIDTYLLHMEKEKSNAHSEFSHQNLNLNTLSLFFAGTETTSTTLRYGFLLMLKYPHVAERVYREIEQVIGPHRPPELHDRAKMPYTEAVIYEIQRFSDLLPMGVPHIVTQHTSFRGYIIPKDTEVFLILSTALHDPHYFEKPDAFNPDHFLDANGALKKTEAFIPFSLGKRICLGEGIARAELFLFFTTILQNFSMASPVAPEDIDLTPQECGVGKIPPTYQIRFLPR
Procedure: as §1

CYP3A = assay: in vitro
Procedure: as §1

in vitro = settings: for microsomal CLint at 0.5 μM / half-life at 0.5 μM: both; for microsomal CLint at 0.5 μM: s9, CLint (intrinsic clearance); for microsomal CLint at 0.5 μM / half-life at 0.5 μM / % Remaining of Initial (n = 1): human liver S9 fraction; for half-life at 0.5 μM: s9, Half-life (min)
[1] = target: T2, bovine serum albumin (BSA) (Bos taurus, UniProt P02769); assay: ITC, BSA control protein; format: binding
T2 construct: purchased EMD (Billerica, MA)
Procedure: (2) Preparation of Flag-DDX5, Flag-USP2, Flag-UbE2T and Flag-Top1 protein solutions (>360 μL/sample), respectively, containing 10 μM of Flag-DDX5, Flag-USP2, Flag-UbE2T or Flag-Top1 proteins in 1×PBS (pH7.4) and 8% DMSO from protein stocks in 1× PBS (the same solution was also prepared for BSA).
(3) preparation of washing/diluting solution (>2.5 mL/sample) containing 1× PBS (pH7.4) and 8% DMSO.
(4) ITC assay was performed using the auto-iTC200 instrument (MicroCal, GE). A protein solution (Flag-DDX5, Flag-USP2, Flag-UbE2T, Flag-Topl or BSA) with defined concentration (10 μM) in a volume of 360 μL in 1×PBS (pH7.4) containing 8% DMSO was loaded into the calorimeter cell as the Macromolecule (M). […] At each injection, the program calculates [M]t and [X]t (total protein and total ligand at that injection). The binding constant (KD)), binding stoichiometry (n), and thermodynamic parameters (AH and AS) were determined by fitting the titration curve to a one-site binding mode, using the Origin software provided by the manufacturer.

in vivo = settings: SCID, mouse, iv
USP2a = target: T3, USP2a (Homo sapiens, UniProt O75604); assay: Cell-based polyUb/MdmX and USP2a mRNA/protein analysis in PCa cells; parameters: purchased Invitrogen ProtoArray Human Protein Microarray v5.0
T3 sequence (O75604 1-605): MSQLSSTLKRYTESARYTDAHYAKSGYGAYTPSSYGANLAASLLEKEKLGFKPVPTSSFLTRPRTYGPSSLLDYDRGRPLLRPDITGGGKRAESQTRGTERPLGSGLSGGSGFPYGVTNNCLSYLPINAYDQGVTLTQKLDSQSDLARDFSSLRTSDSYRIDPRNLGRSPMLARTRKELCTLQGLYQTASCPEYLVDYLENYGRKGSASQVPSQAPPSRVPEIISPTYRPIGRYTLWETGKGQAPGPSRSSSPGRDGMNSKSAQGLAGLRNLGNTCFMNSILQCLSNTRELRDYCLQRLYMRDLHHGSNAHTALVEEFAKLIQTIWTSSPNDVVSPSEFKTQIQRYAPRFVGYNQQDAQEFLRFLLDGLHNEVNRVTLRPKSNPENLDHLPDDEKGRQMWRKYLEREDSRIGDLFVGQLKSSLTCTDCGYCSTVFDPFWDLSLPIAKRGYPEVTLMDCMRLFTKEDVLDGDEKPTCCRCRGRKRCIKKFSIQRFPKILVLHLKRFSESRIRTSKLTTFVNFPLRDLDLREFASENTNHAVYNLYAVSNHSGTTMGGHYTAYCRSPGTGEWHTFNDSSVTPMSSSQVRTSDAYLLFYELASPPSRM

[2] = tested on: Panc-1 and MiaPaca-2 cells; assay: 3D cell spheroid formation and viability; format: cell-based, human
Procedure: 3D) cell spheroid formation studies: Pancreatic cancer cells were cultured in the ultra-low attachment plates in the pancreatic cancer organoid culture medium. In some studies, to observe the spheroid formation, DDX5 KO pancreatic cancer cells in the presence and absence of Agrin at a concentration of 2.5 μg/mL, 5 μg/mL and/or 10 μg/mL for 6-7 days were cultured. […] Representative images were take during this time and cell viability was determined by MTT assay.

Sequence of CYP1A2 (P05177 whole entry, canonical isoform): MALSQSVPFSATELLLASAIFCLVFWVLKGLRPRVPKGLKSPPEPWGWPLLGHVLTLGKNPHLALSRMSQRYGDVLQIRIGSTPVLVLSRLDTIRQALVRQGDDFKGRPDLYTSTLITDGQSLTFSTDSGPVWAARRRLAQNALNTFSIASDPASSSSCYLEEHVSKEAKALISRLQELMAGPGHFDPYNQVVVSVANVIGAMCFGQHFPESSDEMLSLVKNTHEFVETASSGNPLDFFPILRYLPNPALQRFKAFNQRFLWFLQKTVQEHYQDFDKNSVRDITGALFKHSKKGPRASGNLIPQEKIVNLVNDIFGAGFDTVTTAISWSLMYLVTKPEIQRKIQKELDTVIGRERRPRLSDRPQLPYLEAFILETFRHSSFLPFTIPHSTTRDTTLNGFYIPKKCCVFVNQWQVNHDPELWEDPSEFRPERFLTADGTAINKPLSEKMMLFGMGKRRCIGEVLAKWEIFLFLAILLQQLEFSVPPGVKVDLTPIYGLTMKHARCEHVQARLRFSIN
T2 sequence (P02769 25-607): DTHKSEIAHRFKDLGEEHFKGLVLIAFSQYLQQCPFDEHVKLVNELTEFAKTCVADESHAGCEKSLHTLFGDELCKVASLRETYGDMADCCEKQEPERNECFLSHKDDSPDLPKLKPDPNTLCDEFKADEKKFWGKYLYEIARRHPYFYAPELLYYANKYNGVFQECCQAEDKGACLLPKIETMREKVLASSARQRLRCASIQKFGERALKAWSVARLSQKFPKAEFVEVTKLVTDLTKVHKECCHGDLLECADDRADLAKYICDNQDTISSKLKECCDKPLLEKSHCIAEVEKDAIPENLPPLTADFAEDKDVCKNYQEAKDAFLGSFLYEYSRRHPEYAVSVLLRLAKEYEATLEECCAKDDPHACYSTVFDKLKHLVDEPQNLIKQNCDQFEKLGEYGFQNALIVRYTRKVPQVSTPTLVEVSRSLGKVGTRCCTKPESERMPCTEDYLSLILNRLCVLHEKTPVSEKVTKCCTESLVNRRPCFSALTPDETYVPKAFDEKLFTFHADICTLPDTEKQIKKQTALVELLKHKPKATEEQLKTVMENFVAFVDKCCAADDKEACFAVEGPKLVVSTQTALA

SMILES: CCC1(O)C(=O)OCc2c1cc1n(c2=O)Cc2cc3cc4c(cc3nc2-1)OCO4 (centres unmarked) [FL118]
- CYP1A2 inhibition (CYP1A2; 1 μM): does not inhibit these 3 CYP isoforms
- inhibition at 1 µM (CYP1A2; human, microsomes, pH 7.4): 0.1%
- CYP2B6 inhibition (CYP2B6; 1 μM): does not inhibit these 3 CYP isoforms
- inhibition at 1 µM (CYP2B6; human, microsomes, pH 7.4): 0%
- CYP3A inhibition (CYP3A; 1 μM, testosterone probe): does not inhibit these 3 CYP isoforms
- inhibition at 1 µM (CYP3A; human, microsomes, pH 7.4): 0%
- microsomal CLint at 0.5 μM (in vitro; human, calculated (in parentheses)): 11.1 µL/min/mg
- microsomal CLint at 0.5 μM (in vitro; human, bound): < 11.6 µL/min/mg
- half-life at 0.5 μM (in vitro; human, calculated (in parentheses), calculated half-life longer than the experiment): 1.05 h
- half-life at 0.5 μM (in vitro; human, expressed as > the longest incubation time): > 1 h
- % Remaining of Initial (n = 1) (in vitro; 0 min): 100%
- % Remaining of Initial (n = 1) (in vitro; 10 min): 82%
- % Remaining of Initial (n = 1) (in vitro; 20 min): 73%
- % Remaining of Initial (n = 1) (in vitro; 30 min): 69%
- % Remaining of Initial (n = 1) (in vitro; 60 min): 52%
- half-life (in vitro; human, s9): long half-life
- binding to BSA [1]: no binding
- Tmax (in vivo; FaDu tumor): 0.167 h
- half-life (in vivo; FaDu tumor): 6.85 h
- Tmax (in vivo; SW620 tumor): 0.167 h
- half-life (in vivo; SW620 tumor): 12.8 h
- Tmax (in vivo; plasma): 0.167 h
- Vd (in vivo; plasma): 36.8 L/kg
- clearance (in vivo; plasma): 238 mL/min/kg
- half-life (in vivo; plasma): 1.79 h
- USP2a mRNA and protein level (USP2a): USP2a increases
- polyUb-mediated MdmX degradation in cells (USP2a): promotes polyUb-mediated MdmX degradation
- 3D spheroid formation [2]: inhibited
- cell viability in 3D culture [2]: inhibited in a FL118 concentration-dependent manner

From patent US20250312469A1 (CANGET BIOTEKPHARMA, priority 2024, published 2025)
